Source: US6610689B2, “HIV protease inhibitors based on amino acid derivatives” (priority 2001, dated 2003)
Counter-ions that a name gives are not always drawn. Like-named read-outs stand apart in the source and are kept apart here.

Target: T1, HIV protease (Human immunodeficiency virus type 1 group M subtype B, UniProt P04585)
T1 construct: A third viral enzyme known as protease then cleaves the polyproteins
Experiment: Enzymatic Assay for Determining the Inhibition Constant (Ki) of Synthetic Compounds Targeting the HIV Protease (fluorometric FRET assay)
Assay type: biochemical
Procedure, shortened: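 Ki obtained via the Henderson equation from enzyme velocities with and without compound, accounting for substrate concentration and Km. Activity followed by FRET fluorescence from cleavage of a substrate flanked by EDANS donor and DABCYL acceptor.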

[1] = Table 1, compounds of formula I, read-out: Ki (anti-protease activity)

Compound: Cc1ccc(S(=O)(=O)N(CC(C)C)[C@H](CO)CCCCNC(=O)[C@H](Cc2ccccc2)NC(=O)N2CCOCC2)cc1 [Example 120, (2S,2′S) 2-N-Isobutyl-2-N-(4-methylbenzenesulfonyl)-6-N-[N′α-(4-morpholinecarbonyl)-S-phenylalanyl]-2,6-diaminohexanol]
- Ki: 2.4 nM

Compound: CC(=O)Nc1ccc(S(=O)(=O)N[C@@H](Cc2ccccc2)C(=O)NCCCC[C@@H](CO)N(CC(C)C)S(=O)(=O)c2ccc(C)cc2)cc1 [Example 121, (2S,2′S) 2-N-Isobutyl-2-N-(4-methylbenzenesulfonyl)-6-N-[N′α-(4-acetylaminobenzenesulfonyl)-S-phenylalanyl]-2,6-diaminohexanol]
- Ki: 23 nM

Compound: Cc1ccc(S(=O)(=O)N(CC(C)C)[C@H](CO)CCCCNC(=O)[C@H](Cc2ccccc2)NS(=O)(=O)c2cccs2)cc1 [Example 122, (2S,2′S) 2-N-Isobutyl-2-N-(4-methylbenzenesulfonyl)-6-N-[N′α-(2-thiophenesulfonyl)-S-phenylalanyl]-2,6-diaminohexanol]
- Ki [1]: 8.2 nM

Compound: Cc1ccc(S(=O)(=O)N(CC(C)C)[C@H](CO)CCCCNC(=O)[C@H](Cc2ccccc2)NS(=O)(=O)c2ccccc2)cc1 [Example 123, (2S,2′S) 2-N-Isobutyl-2-N-(4-methylbenzenesulfonyl)-6-N-(N′α-benzenesulfonyl-S-phenylalanyl)-2,6-diaminohexanol]
- Ki: 14 nM

Compound: Cc1ccc(S(=O)(=O)N[C@@H](Cc2ccc([N+](=O)[O-])cc2)C(=O)NCCCC[C@@H](CO)N(CC(C)C)S(=O)(=O)c2ccc(C)cc2)cc1 [Example 124, (2S,2′S) 2-N-Isobutyl-2-N-(4-methylbenzenesulfonyl)-6-N-[N′α-(4-methylbenzenesulfonyl)-S-4-nitrophenylalanyl]-2,6-diaminohexanol]
- Ki: 12 nM

Compound: Cc1ccc(S(=O)(=O)N(CC(C)C)[C@H](CO)CCCCNC(=O)[C@H](Cc2ccccc2)NS(=O)(=O)c2ccc(F)cc2)cc1 [Example 125, (2S,2′S) 2-N-Isobutyl-2-N-(4-methylbenzenesulfonyl)-6-N-[N′α-(4-fluorobenzenesulfonyl)-S-phenylalanyl]-2,6-diaminohexanol]
- Ki [1]: 39 nM

Compound: COc1ccc(S(=O)(=O)N[C@@H](Cc2ccccc2)C(=O)NCCCC[C@@H](CO)N(CC(C)C)S(=O)(=O)c2ccc(C)cc2)cc1 [Example 126, (2S,2′S) 2-N-Isobutyl-2-N-(4-methylbenzenesulfonyl)-6-N-[N′α-(4-methoxybenzenesulfonyl)-S-phenylalanyl]-2,6-diaminohexanol]
- Ki: 19 nM

Compound: Cc1ccc(S(=O)(=O)N(CC(C)C)[C@H](CO)CCCCNC(=O)[C@H](Cc2ccccc2)NS(=O)(=O)c2ccc(C(F)(F)F)cc2)cc1 [Example 127, (2S,2′S) 2-N-Isobutyl-2-N-(4-methylbenzenesulfonyl)-6-N-[N′α-(4-trifluoromethylbenzenesulfonyl)-S-phenylalanyl]-2,6-diaminohexanol]
- Ki: 164 nM

Compound: Cc1ccc(S(=O)(=O)N(CC(C)C)[C@H](CO)CCCCNC(=O)[C@H](Cc2c[nH]c3ccccc23)NS(=O)(=O)c2ccccc2)cc1 [Example 128, (2S,2′S) 2-N-Isobutyl-2-N-(4-methylbenzenesuilfonyl)-6-N-(N′α-benzenesulfonyi-S-tryptophanyl)-2,6-diaminohexanol]
- Ki [1]: 0.95 nM

Compound: Cc1ccc(S(=O)(=O)N(CC(C)C)[C@H](CO)CCCCNC(=O)[C@H](Cc2c[nH]c3ccccc23)NS(=O)(=O)c2cccs2)cc1 [Example 129, (2S,2′S) 2-N-Isobutyl-2-N-(4-methylbenzenesulfonyl)-6-N-[N′α-(2-thiophenesulfonyl)-S-tryptophanyl]-2,6-diaminohexanol]
- Ki: 1 nM

Compound: Cc1ccc(S(=O)(=O)N(CC(C)C)[C@H](CO)CCCCNC(=O)[C@H](Cc2c[nH]c3ccccc23)NS(=O)(=O)c2ccc([N+](=O)[O-])cc2)cc1 [Example 130, (2S,2′S) 2-N-Isobutyl-2-N-(4-methylbenzenesulfonyl)-6-N-[N′α-(4-nitrobenzenesulfonyl)-S-tryptophanyl]-2,6-diaminohexanol]
- Ki: 27 nM

Compound: CC(=O)N[C@@H](Cc1c[nH]c2ccccc12)C(=O)NCCCC[C@@H](CO)N(CC(C)C)S(=O)(=O)c1ccc(C)cc1 [Example 131, (2S,2′S) 2-N-Isobutyl-2-N-(4-methylbenzenesulfonyl)-6-N-(N′α-acetyl-S-tryptophanyl)-2,6-diaminohexanol]
- Ki: 3 nM

Compound: COc1ccc(CC(=O)N[C@@H](Cc2ccccc2)C(=O)NCCCC[C@@H](C(=O)O)N(CC(C)C)S(=O)(=O)c2ccc(C)cc2)cc1 [Example 132, Nα-Isobutyl-Nα-(4-methylbenzenesulfonyl)-Nε-[N′α-(4-methoxyphenylacetyl)-L-phenylalanyl]-L-lysine]
- Ki: 0.257 nM

Compound: Cc1ccc(S(=O)(=O)N(CC(C)C)[C@@H](CCCCNC(=O)[C@H](Cc2c[nH]c3ccccc23)NC(=O)CCc2ccccc2)C(=O)O)cc1 [Example 133, Nα-Isobutyl-Nα-(4-methylbenzenesulfonyl)-Nε-(N′α-dihydrocinnamoyl-L-tryptophanyl)-L-lysine]
- Ki: 0.606 nM

Compound: Cc1ccc(S(=O)(=O)N(CC(C)C)[C@H](CO)CCCCNC(=O)[C@H](Cc2ccccn2)NC(=O)OC(C)(C)C)cc1 [Example 134, (2S,2′S) 2-N-Isobutyl-2-N-(4-methylbenzenesulfonyl)-6-N-(N′α-tert-butoxycarbonyl-S-2-pyridylalanyl)-2,6-diaminohexanol]
- Ki: 30 nM

Compound: Cc1ccc(S(=O)(=O)N(CC(C)C)[C@H](CO)CCCCNC(=O)[C@H](Cc2cccnc2)NC(=O)OC(C)(C)C)cc1 [Example 135, (2S,2′S) 2-N-Isobutyl-2-N-(4-methylbenzenesulfonyl)-6-N-(N′α-tert-butoxycarbonyl-S-3-pyridylalanyl)-2,6-diaminohexanol]
- Ki: 144 nM

Compound: Cc1ccc(S(=O)(=O)N(CC(C)C)[C@H](CO)CCCCNC(=O)[C@H](Cc2ccncc2)NC(=O)OC(C)(C)C)cc1 [Example 136, (2S,2′S) 2-N-Isobutyl-2-N-(4-methylbenzenesulfonyl)-6-N-(N′α-tert-butoxycarbonyl-S-4-pyridylalanyl)-2,6-diaminohexanol]
- Ki [1]: 110 nM

Compound: Cc1ccc(S(=O)(=O)N(CC(C)C)[C@H](CO)CCCCNC(=O)[C@H](Cc2ccccc2F)NC(=O)OC(C)(C)C)cc1 [Example 138, (2S,2′S) 2-N-Isobutyl-2-N-(4-methylbenzenesulfonyl)-6-N-(N′α-tert-butoxycarbonyl-S-2-fluorophenylalanyl)-2,6-diaminohexanol]
- Ki: 10 nM

Compound: Cc1ccc(S(=O)(=O)N(CC(C)C)[C@H](CO)CCCCNC(=O)[C@H](Cc2cccc(F)c2)NC(=O)OC(C)(C)C)cc1 [Example 139, (2S,2′S) 2-N-Isobutyl-2-N-(4-methylbenzenesulfonyl)-6-N-(N′α-tert-butoxycarbonyl-S-3-fluorophenylalanyl)-2,6-diaminohexanol]
- Ki: 4.1 nM

Compound: Cc1ccc(S(=O)(=O)N(CC(C)C)[C@H](CO)CCCCNC(=O)[C@H](Cc2ccc(F)cc2)NC(=O)OC(C)(C)C)cc1 [Example 140, (2S,2′S) 2-N-Isobutyl-2-N-(4-methylbenzenesulfonyl)-6-N-(N′α-tert-butoxycarbonyl-S-4-fluorophenylalanyl)-2,6-diaminohexanol]
- Ki: 4.2 nM

Compound: Cc1ccc(S(=O)(=O)N(CC(C)C)[C@H](CO)CCCCNC(=O)[C@@H]2Cc3c([nH]c4ccccc34)CN2C(=O)OC(C)(C)C)cc1 [Example 141, (2S,2′S) 2-N-Isobutyl-2-N-(4-methylbenzenesulfonyl)-6-N-(N′α-tert-butoxycarbonyl-S-1,2,3,4-tetrahydronorharman-3-carbonyl)-2,6-diaminohexanol]
- Ki: 38 nM

Compound: Cc1ccc(S(=O)(=O)N(CC(C)C)[C@H](CO)CCCCNC(=O)[C@H](Cc2ccc(C(C)(C)C)cc2)NC(=O)OC(C)(C)C)cc1 [Example 142, (2S,2′S) 2-N-Isobutyl-2-N-(4-methylbenzenesulfonyl)-6-N-(N′α-tert-butoxycarbonyl-S-4-tert-butylphenylalanyl)-2,6-diaminohexanol]
- Ki: 93 nM

Compound: Cc1ccc(S(=O)(=O)N(CC(C)C)[C@H](CO)CCCCNC(=O)[C@H](Cc2c(F)c(F)c(F)c(F)c2F)NC(=O)OC(C)(C)C)cc1 [Example 143, (2S,2′S) 2-N-Isobutyl-2-N-(4-methylbenzenesulfonyl)-6-N-(N′α-tert-butoxycarbonyl-S-pentafluorophenylalanyl)-2,6-diaminohexanol]
- Ki: > 300 nM

Compound: Cc1ccc(S(=O)(=O)N(CC(C)C)[C@H](CO)CCCCNC(=O)[C@H](Cc2ccc(CNC(=O)OCC3c4ccccc4-c4ccccc43)cc2)NC(=O)OC(C)(C)C)cc1 [Example 144, (2S,2′S) 2-N-Isobutyl-2-N-(4-methylbenzenesulfonyl)-6-N-[N′α-tert-butoxycarbonyl-S-4-(9-fluorenemethoxycarbonylaminomethyl)phenylalanyl]-2,6-diaminohexanol]
- Ki [1]: > 300 nM

Compound: Cc1ccc(S(=O)(=O)N[C@@H](Cc2c[nH]c3ccccc23)C(=O)NCCCC[C@@H](CO)N(CC(C)C)S(=O)(=O)c2ccc(N)cc2)cc1 [Example 145, (2S,2′S) 2-N-(4-Aminobenzenesulfonyl)-2-N-isobutyl-6-N-[N′α-(4-methylbenzenesulfonyl)-S-tryptophanyl]-2,6-diaminohexanol]
- Ki: 1.9 nM

Compound: COc1ccc(S(=O)(=O)N(CC(C)C)[C@H](CO)CCCCNC(=O)[C@@H](N)Cc2c[nH]c3ccccc23)cc1 [Example 146, (2S,2′S) 2-N-Isobutyl-2-N-(4-methoxybenzenesullfonyl)-6-N-(S-tryptophanyl)-2,6-diaminohexanol Trifluoroacetic Acid Salt]
- Ki [1]: 15 nM

Compound: COc1ccc(S(=O)(=O)N(CC(C)C)[C@H](CO)CCCCNC(=O)[C@H](Cc2c[nH]c3ccccc23)NC(=O)OC(C)(C)C)cc1 [Example 147, (2S,2′S) 2-N-Isobutyl-2-N-(4-methoxybenzenesulfonyl)-6-N-(N′α-tert-butoxycarbonyl-S-tryptophanyl)-2,6-diaminohexanol]
- Ki: 16 nM

Compound: COc1ccc(S(=O)(=O)N(CC(C)C)[C@H](CO)CCCCNC(=O)[C@H](Cc2c[nH]c3ccccc23)NC(=O)C(C)(C)C)cc1 [Example 148, (2S,2′S) 2-N-Isobutyl-2-N-(4-methoxybenzenesulfonyl)-6-N-(N′α-pivaloyl-S-tryptophanyl)-2,6-diaminohexanol]
- Ki: 1.9 nM
